Assay results published in PMC12459314, “Subcutaneous administration of a novel TRPM8 antagonist reverses cold hypersensitivity while attenuating the drop in core body temperature” (British journal of pharmacology, 2024).

What was measured:
oxaliplatin-treated mice = assay: Oxaliplatin-induced cold hyperalgesia, cold-plantar test; assay type: in vivo, mouse
Procedure: Male and female C57 BL/6J mice from Taconic Labs were randomized by sex and cage to oxaliplatin or vehicle groups. Mice were weighed and injected intraperitoneally (i.p.) with either oxaliplatin (3 mg·kg^−1), or vehicle (5% dextrose) once per day every day for five consecutive days, followed by five days off, and then by a second round of once per day for five more days. Therefore, mice received a total of 10 injections for a total of 30 mg·kg^−1. The average weight of the females was 18 g while of the males was 20 g. Consequently, the females received an average of 540 and the males 600 μg in total. Behavioural testing was started after the second round of oxaliplatin/vehicle administration. The cold-plantar test was used to assess changes in cold sensitivity. A 3 ml syringe barrel filled with powdered dry ice was used as the stimulus. The dry ice is placed on the glass (borosilicate glass; thickness, 1/8 in. (3.17 mm); temperature, 75°F (24°C), measured with a calibrated IR temperature probe) beneath the hindpaw and the latency to withdraw was determined ([Yilmaz et al., 2017]). The baseline withdrawal latency was determined from the mean of three stimulus applications (at an inter-stimulus interval of ~5 min), while that at each time interval after the administration of a test agent was again the mean of three stimulus applications bracketing the time point in question (i.e., 5 min before, at the time point, and 5 min after). Mice in the two groups defined by oxaliplatin treatment were subsequently randomized to the order of treatment (with the TRPM8 antagonist VBJ103, or vehicle control). VBJ103 and vehicle solutions were administered subcutaneously (s.c.) at doses of 3, 10 and 30 mg·kg^−1. Mice were tested every other day over 7 days so that each mouse received all four injections (vehicle and three doses of VBJ103). In a second cohort of male (n = 8) and female (n = 8) mice, all mice were treated with oxaliplatin as described above, and then randomized to the order of treatment with vehicle, VBJ103 (30 mg·kg^−1) alone, the TRPA1 antagonist, HC-030031 (200 mg·kg^−1) alone, or the combination of VBJ103 (30 mg·kg^−1) and HC-030031 (200 mg·kg^−1). A third cohort of male (n = 7) and female (n = 8) mice was also treated with oxaliplatin as described above. […] All test agents in both follow-up cohorts were again administered in a volume of 5 ml·kg^−1. Mice in both follow-up cohorts were again tested every other day over a period of 6 days. Finally, a fourth cohort of male (n = 4) and female (n = 4) mice was used to confirm that 200 mg·kg^−1 HC-030031 was sufficient to block TRPA1. For this experiment, mice were randomized to the order of treatment with vehicle or HC-030031 ([…]).

AITC-treated mice = assay: AITC-induced nociceptive behaviours; assay type: in vivo, mouse; conditions: HC-030031 200 mg·kg−1, 30 min before AITC 3 mg·kg−1 i.p.; quantified over 20 min
Procedure: Male and female C57 BL/6J mice from Taconic Labs were randomized by sex and cage to oxaliplatin or vehicle groups. Mice were weighed and injected intraperitoneally (i.p.) with either oxaliplatin (3 mg·kg^−1), or vehicle (5% dextrose) once per day every day for five consecutive days, followed by five days off, and then by a second round of once per day for five more days. Therefore, mice received a total of 10 injections for a total of 30 mg·kg^−1. The average weight of the females was 18 g while of the males was 20 g. Consequently, the females received an average of 540 and the males 600 μg in total. Behavioural testing was started after the second round of oxaliplatin/vehicle administration. The cold-plantar test was used to assess changes in cold sensitivity. […] The dry ice is placed on the glass (borosilicate glass; thickness, 1/8 in. (3.17 mm); temperature, 75°F (24°C), measured with a calibrated IR temperature probe) beneath the hindpaw and the latency to withdraw was determined ([Yilmaz et al., 2017]). The baseline withdrawal latency was determined from the mean of three stimulus applications (at an inter-stimulus interval of ~5 min), while that at each time interval after the administration of a test agent was again the mean of three stimulus applications bracketing the time point in question (i.e., 5 min before, at the time point, and 5 min after). […]

human TRPA1 = biological target: T1, human TRPA1 (Homo sapiens, UniProt O75762); assay: FlexStation Ca2+ flux assay in HEK293T cells transfected with human TRPA1; assay type: cell-based; conditions: against an EC80 concentration (10 μM) of AITC
T1 construct: expressed in transfected cells; host or cells: HEK293T
T1 sequence (O75762 whole entry): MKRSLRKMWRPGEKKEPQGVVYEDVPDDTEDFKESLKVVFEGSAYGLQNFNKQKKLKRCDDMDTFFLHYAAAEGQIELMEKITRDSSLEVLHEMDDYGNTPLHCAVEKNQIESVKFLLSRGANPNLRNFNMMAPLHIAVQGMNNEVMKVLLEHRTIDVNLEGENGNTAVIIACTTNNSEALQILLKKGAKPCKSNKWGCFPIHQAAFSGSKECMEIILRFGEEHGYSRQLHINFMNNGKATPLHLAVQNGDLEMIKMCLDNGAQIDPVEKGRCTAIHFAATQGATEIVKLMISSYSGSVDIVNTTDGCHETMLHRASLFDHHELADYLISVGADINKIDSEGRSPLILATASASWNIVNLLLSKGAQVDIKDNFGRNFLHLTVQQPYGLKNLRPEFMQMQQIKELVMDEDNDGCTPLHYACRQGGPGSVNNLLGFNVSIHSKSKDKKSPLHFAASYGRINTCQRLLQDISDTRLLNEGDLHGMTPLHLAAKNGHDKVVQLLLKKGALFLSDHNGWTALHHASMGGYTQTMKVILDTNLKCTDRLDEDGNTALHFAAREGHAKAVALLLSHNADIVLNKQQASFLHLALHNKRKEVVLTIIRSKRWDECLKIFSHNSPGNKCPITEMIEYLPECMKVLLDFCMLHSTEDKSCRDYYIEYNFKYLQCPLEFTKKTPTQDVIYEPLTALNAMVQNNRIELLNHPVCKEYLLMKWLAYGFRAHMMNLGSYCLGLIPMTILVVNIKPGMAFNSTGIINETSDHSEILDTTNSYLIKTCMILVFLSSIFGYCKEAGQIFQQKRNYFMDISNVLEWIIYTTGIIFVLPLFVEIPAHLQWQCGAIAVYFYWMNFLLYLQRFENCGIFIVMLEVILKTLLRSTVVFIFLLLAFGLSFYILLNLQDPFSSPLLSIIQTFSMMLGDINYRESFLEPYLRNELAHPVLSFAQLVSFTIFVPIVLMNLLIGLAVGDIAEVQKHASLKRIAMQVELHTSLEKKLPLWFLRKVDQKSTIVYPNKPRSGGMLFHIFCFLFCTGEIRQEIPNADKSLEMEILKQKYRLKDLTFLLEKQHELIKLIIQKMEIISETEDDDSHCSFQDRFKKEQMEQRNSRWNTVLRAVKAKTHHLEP
Procedure: (§1) The human embryonic kidney cell line (HEK293T, CRL-1573, RRID: CVCL_0045) was purchased from the American Type Culture Collection (Manassas, USA) and was maintained in Dulbecco’s Minimal Essential Medium (DMEM, Cellgro10013CV, Corning, Tewksbury, USA) that was supplemented with 10% fetal bovine serum (Gemini Bio-products), 2-mM L-glutamine (Invitrogen) and 100 U/mL penicillin and streptomycin (Invitrogen) and cultured in an incubator at 37°C, 5% CO2 and 95% humidity. Human TRPV1 and TRPA1 plasmid DNA (gift from D. Julius) were transiently bulk transfected individually into HEK293T cells using the FuGene HD transfection reagent (TFR, Promega, Madison, WI, USA) at a 3:1 ratio (TFR:DNA). Transfected cells were seeded at 10,000 cells per well in a volume of 25 μl into black walled collagen coated 384-well microtiter plates and cultured in an incubator at 37°C, 5% CO2 and 95% humidity for 48 h prior to the initiation of calcium mobilization experiments performed on a FlexStation 3 (Molecular Devices, Sunnyvale, CA, USA) platform equipped with a 16-channel robotic pipettor head and FLIPR tetra pipette tips. At 46 h post transfection, cell monolayers were preloaded with 25 μl of the FLIPR Calcium 6 dye (Molecular Devices) for 2 h in an incubator at 37°C, 5% CO2 and 95% humidity according to the manufacturer’s instructions. The plate was transferred to a FlexStation 3 microplate reader. Relative fluorescence units (RFUs) (Ex. 485 nm, Em 525 nm) were then acquired at 37°C in the kinetic mode. The run time for the agonist (1st) and antagonist (2nd) reads were 60 s each, for a total run time of 120 s, with an interval of 3.1 s between reads in the same well to allow all 16 wells in a column to be read sequentially, and the photomultiplier tube (PMT) level was set at medium, with 6 flashes per read. Baseline Fluo-6 RFUs were acquired for 18 s prior to the addition of compound in both the agonist and antagonist reads. For the first addition agonist read, the volume in the well was 50 μl, the pipette height was set at 40 μl, and 12.5 μl of the test compound was delivered at a speed of 2 μl·s^−1 after the baseline RFU’s acquisition period at 19 s, and the RFUs were acquired for an additional 41 s. For the second addition antagonist read, the volume in the well was 62.5 μl, the pipette height was set at 40 μl, and 12.5 μl of an EC80 agonist concentration was delivered at a speed of 2 μl/s after the baseline RFU’s acquisition period at 19 s, and the RFUs were acquired for an additional 41 s. The FlexStation 3 instrument settings, automated pipetting and data collection were all controlled by the SoftMax Pro software, version 7.1.2.
To analyse the agonist and antagonist Ca^2+ mobilization Fluo-6 RFU’s kinetic data, the RFU’s readings acquired throughout the 60-s acquisition period for each individual well were divided by the average RFU values acquired during the first 18-s baseline acquisition period from the same well to calculate a fold over baseline (FOB) ratio.

[1] = Core body temperature and home cage activity by radiotelemetry (s.c., i.p.); assay type: in vivo, mouse; conditions: capsaicin 1 mg·kg−1 s.c.
Procedure: Male and female C57Bl6J (Jackson Laboratories, Bar Harbor, USA, 8–12 weeks of age, 4 M:3F) were anaesthetised with isoflurane (2%–3% in 100% oxygen), and an HDX11 telemetry unit (Data Sciences) was inserted into the peritoneal cavity through a ventral midline incision. Animals were treated with buprenex (0.05 mg·kg^−1, s.c.every 8 h for 72 h) and enrofloxacin (2 mg·kg^−1, s.c.) and single-housed in a reverse light–dark cycle room (lights off 10 AM–10 PM). Mice were handled every day to acclimatise to injections, and experiments began 1 week later. All injections were performed between 1 and 2 PM. […] Body temperature was averaged into 5-min bins, whereas activity data were summed for the 5-min bin.

human TRPV1 = biological target: T2, human TRPV1 (Homo sapiens, UniProt Q8NER1); assay: FlexStation Ca2+ flux assay in HEK293T cells transfected with human TRPV1; assay type: cell-based
T2 construct: expressed in transfected cells; host or cells: HEK293T
T2 sequence (Q8NER1 whole entry): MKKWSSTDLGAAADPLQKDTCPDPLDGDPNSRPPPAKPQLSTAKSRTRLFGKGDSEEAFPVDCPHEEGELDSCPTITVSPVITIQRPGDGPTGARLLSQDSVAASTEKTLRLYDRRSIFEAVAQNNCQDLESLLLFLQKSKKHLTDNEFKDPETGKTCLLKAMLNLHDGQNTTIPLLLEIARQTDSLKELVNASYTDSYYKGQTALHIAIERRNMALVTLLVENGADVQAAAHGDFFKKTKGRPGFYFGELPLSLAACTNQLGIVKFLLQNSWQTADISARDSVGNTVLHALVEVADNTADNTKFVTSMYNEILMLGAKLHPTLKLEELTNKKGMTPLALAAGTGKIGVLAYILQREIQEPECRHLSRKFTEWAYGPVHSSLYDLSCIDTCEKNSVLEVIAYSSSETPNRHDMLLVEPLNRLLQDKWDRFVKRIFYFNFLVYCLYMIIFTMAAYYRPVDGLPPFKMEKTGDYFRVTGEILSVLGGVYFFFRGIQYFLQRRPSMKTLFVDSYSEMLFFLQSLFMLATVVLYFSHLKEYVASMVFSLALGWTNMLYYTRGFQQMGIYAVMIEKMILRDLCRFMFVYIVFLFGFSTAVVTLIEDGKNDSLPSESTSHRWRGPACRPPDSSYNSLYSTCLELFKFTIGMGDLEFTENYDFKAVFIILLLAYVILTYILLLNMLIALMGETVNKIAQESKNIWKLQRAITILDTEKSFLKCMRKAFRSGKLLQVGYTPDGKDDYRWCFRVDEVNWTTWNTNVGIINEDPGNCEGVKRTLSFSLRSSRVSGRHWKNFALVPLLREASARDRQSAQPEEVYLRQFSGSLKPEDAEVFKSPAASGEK
Procedure: as §1, with “Transfected cells were seeded at 10,000 cells per well in a volume of 25 μl into black walled collagen coated 384-well microtiter plates and cultured in an incubator at 37°C, 5% CO2 and 95% humidity for 48 h prior to the initiation of calcium mobilization experiments performed on a FlexStation 3 (Molecular Devices, Sunnyvale, CA, USA) platform equipped with a 16-channel robotic pipettor head and FLIPR tetra pipette tips. At 46 h post transfection, cell monolayers were preloaded with 25 μl of the FLIPR Calcium 6 dye (Molecular Devices) for 2 h in an incubator at 37°C, 5% CO2 and 95% humidity according to the manufacturer’s instructions.” left out, “The FlexStation 3 instrument settings, automated pipetting and data collection were all controlled by the SoftMax Pro software, version 7.1.2.” left out

[2] = Partition coefficient (logD), shake flask method; assay type: physicochemical; conditions: n-octanol / pH 7.4 phosphate buffer
Procedure: The partition coefficient (logD) at pH 7.4 of VBJ103 was determined using the shake flask method by Absorption Systems (Exton, PA, USA). The buffer was prepared by combining 50 ml of 0.2-M solution of KH2PO4 with 150 ml of dH2O and then adjusting to pH 7.4 with 10-N NaOH. In a single incubation, 15 μl of a 10-mM DMSO solution of each test article was added to test tubes which contained 0.75 ml of n-octanol and 0.75 ml of pH 7.4 phosphate buffer. Testosterone was also introduced to each tube as an internal control, also at a dosing concentration of 100 μM. These samples were gently mixed on a benchtop rotator for 1 h at room temperature. The tubes were then removed from the rotator, and the aqueous and organic phases were allowed to separate for 1 h. An aliquot of the organic layer was taken and diluted 200-fold into a mixture of 1:1 buffer: acetonitrile (ACN). An aliquot of the aqueous layer was taken and diluted 2-fold, 10-fold and 200-fold into a mixture of 1:1 buffer: ACN. All samples were assayed by LC–MS/MS on a Thermo BDS Hypersil C18 column (30 × 2.1 mm, 3 μm) using electrospray ionization, as previously reported ([Journigan et al., 2020]).

[3] = ref Journigan et al, 2020; cited from earlier work
[4] = Core body temperature by radiotelemetry after i.c.v. administration; assay type: in vivo, mouse; conditions: 3 nmol in 1 μL i.c.v.; within 60 min; in five of eight mice
Procedure: A second set of male C57Bl6J mice (Jackson Laboratories, n = 8) was implanted with telemetry as described above and a 26-gauge brain cannula (Plastics One) targeted at the lateral ventricle using coordinates relative to Bregma: 0.3 mm caudal, 1.0 mm lateral, 3.0 mm ventral. This second procedure was also performed under isoflurane anesthesia. The brain cannula was secured to the skull with two screws and dental cement. Animals were treated with buprenex (0.05 mg·kg^−1, s.c. every 8 h for 48 h) and enrofloxacin (2 mg·kg^−1, s.c.), singly housed and handled daily as described above. A single i.c.v. injection was performed every other day in a randomized order and included: (1) Galanin-like peptide (3 nmol/1 μL), (2) VBJ103 (306 nmol/1 μL) and (3) VBJ103 vehicle (1 μL). Galanin-like peptide produced a decrease in body temperature in five of eight mice. Therefore, body temperature data in response to VBJ103 and vehicle are presented in these five mice. These studies were carried out with a single dose of VBJ103 (306 nmol/1 μL or ~4 mg·kg^−1), which was the highest dose achievable due to constraints of the injection volume and the solubility of VBJ103.

For `Fc1ccc(C(OCCN2CCN(CCCc3ccccc3)CC2)c2ccc(F)cc2)cc1` [GBR12909, reference compound], the “influence on withdrawal latency to noxious cold stimuli” value (oxaliplatin-treated mice; 20 mg·kg−1 alone, third cohort, vehicle 1:1 DMSO:water) was “no detectable influence”.

In the case of `CC(C)c1ccc(NC(=O)Cn2cnc3c2c(=O)n(C)c(=O)n3C)cc1` [HC-030031, reference compound], the AITC-induced nociceptive behaviours (AITC-treated mice) is reported as “significantly attenuated”, the “influence on oxaliplatin-induced cold hypersensitivity” value (oxaliplatin-treated mice; 200 mg·kg−1 alone, second cohort, vehicle 0.5% Methocel) is reported as “failed to detect an influence” and the IC50 (human TRPA1) is reported as 2000 ± 830 nM. The “maximum inhibition at TRPA1” value (human TRPA1) was 54%.

For `COc1cc(CNC(=O)CCCC/C=C/C(C)C)ccc1O` [capsaicin, reference compound], the “time of peak drop in CBT” value [1] was at most 60 min and the “drop in CBT versus s.c. VBJ103 or PBMC” value ([1]; positive control) was “significantly larger drop”.

`Oc1cc2c(cc1O)CN(C(=S)NCCc1ccc(Cl)cc1)CCC2` [capsazepine, reference compound] gave an IC50 (human TRPV1) of 566 ± 86 nM.

Work on `Cl.Cl.Cl.Cl.Cl.Cl.N.N.N.N.N.N.N.N.N.N.N.N.N.N.[O-2].[O-2].[Ru+3].[Ru+3].[Ru+4]` [ruthenium red, reference compound] yielded an IC50 (human TRPA1) of 53 ± 7 nM.

In the case of `C[C@]12CC[C@H]3[C@@H](CCC4=CC(=O)CC[C@@]43C)[C@@H]1CC[C@@H]2O` [testosterone, reference compound], the logD at 1 h [2] is listed as 3.09 and the “Mouse Liver microsomes, T1/2” value [3] is listed as 3.7 min.

In the case of “galanin-like peptide: peptide given i.c.v. as positive control for a decrease in body temperature (APAHRGRGGWTLNSAGYLLGPVLHLPQMGDQDGKRETALEILDLWKAIDGLPYSHPPQPS; Galanin-like peptide; UniProt Q9UBC7 25-84, looked up) [reference compound]”, the “decrease in CBT” value [4] is reported as over 3 °C.
